This note sets out measurements from patent publication US11136583B2, “Methods and materials for treating cancer” (Mayo Foundation for Medical Education and Research, priority 2017, dated 2021).

Experiment [1] relates to Protein kinase ataxia-telangiectasia mutated (ATM) signaling. Briefly: ATM signaling in irradiated U2OS cells by western blot. It counts as cell-based. The conditions noted are these: U2OS cells pretreated 6 hours, then 10 Gy IR, harvested 30 minutes after IR (FIG. 11). As for the experimental part:
FIG. 11. U2OS cells were pretreated with AZD6244. 6 hours later, cells were treated with 10 Gy IR. 30 minutes after ionizing radiation, cells were harvested, lysed, and analyzed by western blot with the indicated antibodies.
(§1) U2OS cells were plated in 6 well plates, and MEK1 inhibitors (AZD6244 or GDC0623) were added to wells with 10 μM final concentration and incubated for 48 hours. AZD6244 was purchased from Selleckchem. In some cases, cells were also irradiated with IR (10 Gy IR for 30 minutes).
(§2) Cells were washed once with PBS and lysed with SDS lysis buffer. The samples were separated by SDS-PAGE following three washes with NETN buffer. Western blots were carried out following standard procedures.

The subject of a further experiment is UFL1. The experiment can be described thus: Ufmylation level in U2OS cells by western blot with UFM1 antibody. It counts as cell-based. As for the experimental part:
FIG. 10. U2OS cells were treated with AZD6244 or GDC0623. 48 hours later, cell were harvested, lysed, and analyzed by western blot with the indicated antibodies.
as §1, §2
To identify an inhibitor of UFL1 activity that induced a significant decrease of ufmylation, cells were treated with inhibitors and were analyzed by western blot using UFM1 antibody to detect the ufmylation level in the cells.

For the compound `Cn1cnc2c(F)c(Nc3ccc(Br)cc3Cl)c(C(=O)NOCCO)cc21` [AZD6244, selumetinib], the ATM signaling result in experiment [1] is listed as “greatly suppressed”. The “UFL1 inhibition (conclusion from ufmylation and ATM signaling western blots)” value in the experiment on UFL1 was “inhibits UFL1”. The “ufmylation level in the cells” value with UFL1 (10 μM, 48 hours, western blot with UFM1 antibody (FIG. 10)) was “greatly suppressed”.
